Assay results taken from ChEMBL document CHEMBL1201862, “PubChem BioAssay data set” (2004).
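Each compound was tested at five concentrations against cells in 96-well plates for 48 hours. The concentration for 50% growth inhibition is given as GI50.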 Calls of active or inactive are those of the source. Cut-off read from the data, not from the text of the source: active = GI50 up to about 1.1 µM and inactive = higher.

Experiments:
Test in all cases: growth of human tumour cells (NCI), 48 h
BT-549 = system: BT-549
U-251 = system: U-251
NCI-H522 = system: NCI-H522
SNB-19 = system: SNB-19
SN12C = system: SN12C
SK-MEL-28 = system: SK-MEL-28
OVCAR-8 = system: OVCAR-8
TK-10 = system: TK-10
A549 = system: A549
NCI/ADR-RES = system: NCI/ADR-RES
HCT-116 = system: HCT-116
HOP-62 = system: HOP-62
IGROV-1 = system: IGROV-1
LOX IMVI = system: LOX IMVI
NCI-H23 = system: NCI-H23
A498 = system: A498
SNB-75 = system: SNB-75
MDA-N = system: MDA-N
CCRF-CEM = system: CCRF-CEM
UO-31 = system: UO-31

Structure (SMILES): CN(C)CCCSc1nc2c(c(=N)n1-c1ccccc1)c(=S)n(-c1ccccc1)c(=S)n2-c1ccccc1
- GI50 (BT-549): 1.68 µM (inactive)
- GI50 (U-251): 1.75 µM (inactive)
- GI50 (NCI-H522): 1.69 µM (inactive)
- GI50 (SNB-19): 2.51 µM (inactive)
- GI50 (SN12C): 1.74 µM (inactive)
- GI50 (SK-MEL-28): 2.04 µM (inactive)
- GI50 (OVCAR-8): 1.77 µM (inactive)
- GI50 (TK-10): 1.71 µM (inactive)
- GI50 (A549): 1.95 µM (inactive)
- GI50 (NCI/ADR-RES): 2.59 µM (inactive)
- GI50 (HCT-116): 1.98 µM (inactive)
- GI50 (HOP-62): 1.8 µM (inactive)
- GI50 (IGROV-1): 1.83 µM (inactive)
- GI50 (LOX IMVI): 1.29 µM (inactive)
- GI50 (NCI-H23): 2.07 µM (inactive)
- GI50 (A498): 2.42 µM (inactive)
- GI50 (SNB-75): 1.63 µM (inactive)
- GI50 (MDA-N): 1.71 µM (inactive)
- GI50 (CCRF-CEM): 0.43 µM (active)

Structure (SMILES): O=c1c2ccccc2nc(-c2ccc(Cl)cc2)n1O
- GI50 (BT-549): 27.3 µM (inactive)
- GI50 (U-251): 20.8 µM (inactive)
- GI50 (NCI-H522): 15.3 µM (inactive)
- GI50 (SNB-19): 25.2 µM (inactive)
- GI50 (SN12C): 35.7 µM (inactive)
- GI50 (UO-31): 2.2 µM (inactive)
- GI50 (OVCAR-8): 16.5 µM (inactive)
- GI50 (TK-10): 21.1 µM (inactive)
- GI50 (A549): 29.4 µM (inactive)
- GI50 (NCI/ADR-RES): 19.6 µM (inactive)
- GI50 (HCT-116): 29.7 µM (inactive)
- GI50 (HOP-62): 9.12 µM (inactive)
- GI50 (IGROV-1): 2.19 µM (inactive)
- GI50 (LOX IMVI): 1.11 µM (active)
- GI50 (NCI-H23): 48.4 µM (inactive)
- GI50 (A498): 53.7 µM (inactive)
- GI50 (SNB-75): 38.2 µM (inactive)
- GI50 (MDA-N): 35.6 µM (inactive)
- GI50 (CCRF-CEM): 14.1 µM (inactive)

Structure (SMILES): CC1C2(C)OC(=N)C(C#N)(C(c3ccccc3)O2)C1(C#N)C#N (stereo not drawn)
- GI50 (BT-549): 42.3 µM (inactive)
- GI50 (U-251): 18.7 µM (inactive)
- GI50 (SNB-19): 55.2 µM (inactive)
- GI50 (SN12C): 16.6 µM (inactive)
- GI50 (SK-MEL-28): > 10 µM (inactive)
- GI50 (UO-31): 39.8 µM (inactive)
- GI50 (OVCAR-8): 30.4 µM (inactive)
- GI50 (TK-10): 36 µM (inactive)
- GI50 (A549): > 100 µM (inactive)
- GI50 (NCI/ADR-RES): 42.9 µM (inactive)
- GI50 (HCT-116): 21.2 µM (inactive)
- GI50 (IGROV-1): 33.8 µM (inactive)
- GI50 (LOX IMVI): 17.2 µM (inactive)
- GI50 (NCI-H23): 28.2 µM (inactive)
- GI50 (A498): 42.1 µM (inactive)
- GI50 (SNB-75): > 100 µM (inactive)
- GI50 (MDA-N): 18.2 µM (inactive)
- GI50 (CCRF-CEM): 17.6 µM (inactive)

Structure (SMILES): NC(=O)C(=Cn1c(=S)[nH]c2ccc([N+](=O)[O-])cc21)C(N)=O
- GI50 (BT-549): > 100 µM (inactive)
- GI50 (U-251): > 100 µM (inactive)
- GI50 (SNB-19): > 100 µM (inactive)
- GI50 (SN12C): > 100 µM (inactive)
- GI50 (SK-MEL-28): > 100 µM (inactive)
- GI50 (UO-31): > 100 µM (inactive)
- GI50 (OVCAR-8): > 100 µM (inactive)
- GI50 (TK-10): > 100 µM (inactive)
- GI50 (A549): > 100 µM (inactive)
- GI50 (NCI/ADR-RES): > 100 µM (inactive)
- GI50 (HCT-116): > 100 µM (inactive)
- GI50 (HOP-62): > 100 µM (inactive)
- GI50 (IGROV-1): > 100 µM (inactive)
- GI50 (LOX IMVI): > 100 µM (inactive)
- GI50 (NCI-H23): > 100 µM (inactive)
- GI50 (A498): > 100 µM (inactive)
- GI50 (SNB-75): 97.9 µM (inactive)
- GI50 (MDA-N): > 100 µM (inactive)

Structure (SMILES): C[C@@H](NC(=O)Nc1cccc(C(=O)Nc2cc(C(C)(C)C)ccc2C(=O)O)n1)c1ccccc1
- GI50 (BT-549): 37 µM (inactive)
- GI50 (U-251): 16.1 µM (inactive)
- GI50 (NCI-H522): 40.8 µM (inactive)
- GI50 (SNB-19): 47 µM (inactive)
- GI50 (SN12C): 49.8 µM (inactive)
- GI50 (SK-MEL-28): 41.4 µM (inactive)
- GI50 (UO-31): 40.1 µM (inactive)
- GI50 (OVCAR-8): 40.6 µM (inactive)
- GI50 (A549): 44.3 µM (inactive)
- GI50 (NCI/ADR-RES): > 100 µM (inactive)
- GI50 (HCT-116): 19.9 µM (inactive)
- GI50 (HOP-62): 28.4 µM (inactive)
- GI50 (IGROV-1): 37.9 µM (inactive)
- GI50 (LOX IMVI): 19.3 µM (inactive)
- GI50 (NCI-H23): 41.7 µM (inactive)
- GI50 (A498): 64.1 µM (inactive)
- GI50 (SNB-75): 32.1 µM (inactive)
- GI50 (MDA-N): 38.4 µM (inactive)

Structure (SMILES): C/C=C\C(CC(=O)OC)CC(=O)N(CCC1CN(S(=O)(=O)C(F)(F)F)c2ccccc21)Cc1ccc(OC)cc1OC (stereo not drawn)
- GI50 (BT-549): > 100 µM (inactive)
- GI50 (U-251): > 100 µM (inactive)
- GI50 (NCI-H522): 57.3 µM (inactive)
- GI50 (SNB-19): > 100 µM (inactive)
- GI50 (SN12C): > 100 µM (inactive)
- GI50 (SK-MEL-28): > 100 µM (inactive)
- GI50 (UO-31): > 100 µM (inactive)
- GI50 (TK-10): > 100 µM (inactive)
- GI50 (A549): 77.4 µM (inactive)
- GI50 (NCI/ADR-RES): > 100 µM (inactive)
- GI50 (HCT-116): 76.2 µM (inactive)
- GI50 (HOP-62): > 100 µM (inactive)
- GI50 (IGROV-1): > 100 µM (inactive)
- GI50 (LOX IMVI): > 100 µM (inactive)
- GI50 (NCI-H23): > 100 µM (inactive)
- GI50 (A498): > 100 µM (inactive)
- GI50 (SNB-75): > 100 µM (inactive)
- GI50 (MDA-N): > 100 µM (inactive)

Structure (SMILES): CCN1CC(C)Cn2c(=O)[nH]c3cc(Br)cc1c32 (stereo not drawn)
- GI50 (BT-549): 4.1 µM (inactive)
- GI50 (U-251): 24 µM (inactive)
- GI50 (SNB-19): 26.4 µM (inactive)
- GI50 (SN12C): 44.7 µM (inactive)
- GI50 (SK-MEL-28): 35.7 µM (inactive)
- GI50 (UO-31): 40.1 µM (inactive)
- GI50 (OVCAR-8): 23.7 µM (inactive)
- GI50 (TK-10): 25 µM (inactive)
- GI50 (A549): 25.6 µM (inactive)
- GI50 (NCI/ADR-RES): 8.05 µM (inactive)
- GI50 (HCT-116): 29.9 µM (inactive)
- GI50 (HOP-62): 30.5 µM (inactive)
- GI50 (IGROV-1): 18.5 µM (inactive)
- GI50 (LOX IMVI): 21.4 µM (inactive)
- GI50 (NCI-H23): 36.8 µM (inactive)
- GI50 (A498): 16.9 µM (inactive)
- GI50 (SNB-75): 11.4 µM (inactive)
- GI50 (MDA-N): 4.81 µM (inactive)
- GI50 (CCRF-CEM): 7.67 µM (inactive)

Structure (SMILES): Cn1c(=O)n2c(=O)n(C)c(=O)n2c1=O
- GI50 (BT-549): > 100 µM (inactive)
- GI50 (U-251): > 100 µM (inactive)
- GI50 (NCI-H522): > 100 µM (inactive)
- GI50 (SNB-19): > 100 µM (inactive)
- GI50 (SN12C): > 100 µM (inactive)
- GI50 (SK-MEL-28): > 100 µM (inactive)
- GI50 (UO-31): > 100 µM (inactive)
- GI50 (OVCAR-8): > 100 µM (inactive)
- GI50 (TK-10): > 100 µM (inactive)
- GI50 (A549): > 100 µM (inactive)
- GI50 (NCI/ADR-RES): > 100 µM (inactive)
- GI50 (HCT-116): 91.8 µM (inactive)
- GI50 (IGROV-1): > 100 µM (inactive)
- GI50 (LOX IMVI): > 100 µM (inactive)
- GI50 (NCI-H23): > 100 µM (inactive)
- GI50 (A498): > 100 µM (inactive)
- GI50 (SNB-75): > 100 µM (inactive)
- GI50 (MDA-N): > 100 µM (inactive)
- GI50 (CCRF-CEM): > 100 µM (inactive)
